According to patent US5652237A, “2-substituted-4H-3, 1-benzoxazin-4-ones and benzthiazin-4-ones as inhibitors of complement C1r protease for the treatment of inflammatory processes” (Warner-Lambert Company, priority 1995, dated 1997):
Like-named read-outs stand apart in the source and are kept apart here. One block for each compound: values may come before it.

Key:
human C1 r = biological target: T1, human C1 r (Homo sapiens, UniProt P00736); experiment: Assay of C1r Enzyme Activity (Assay 1), thioester substrate z-Gly-Arg-S-Bzl with DTNB; format: biochemical
T1 construct: purchased Enzyme Research Labs (South Bend, Ind.)
T1 sequence (P00736 464-705 limits assumed): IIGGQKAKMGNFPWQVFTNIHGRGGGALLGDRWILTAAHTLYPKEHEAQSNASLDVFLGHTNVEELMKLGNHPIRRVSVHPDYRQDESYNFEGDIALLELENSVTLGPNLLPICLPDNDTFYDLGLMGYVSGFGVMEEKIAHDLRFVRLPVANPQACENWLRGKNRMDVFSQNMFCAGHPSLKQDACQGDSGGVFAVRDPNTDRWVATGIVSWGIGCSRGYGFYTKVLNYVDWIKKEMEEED
T1 sequence (P00736 18-463 partner limits assumed): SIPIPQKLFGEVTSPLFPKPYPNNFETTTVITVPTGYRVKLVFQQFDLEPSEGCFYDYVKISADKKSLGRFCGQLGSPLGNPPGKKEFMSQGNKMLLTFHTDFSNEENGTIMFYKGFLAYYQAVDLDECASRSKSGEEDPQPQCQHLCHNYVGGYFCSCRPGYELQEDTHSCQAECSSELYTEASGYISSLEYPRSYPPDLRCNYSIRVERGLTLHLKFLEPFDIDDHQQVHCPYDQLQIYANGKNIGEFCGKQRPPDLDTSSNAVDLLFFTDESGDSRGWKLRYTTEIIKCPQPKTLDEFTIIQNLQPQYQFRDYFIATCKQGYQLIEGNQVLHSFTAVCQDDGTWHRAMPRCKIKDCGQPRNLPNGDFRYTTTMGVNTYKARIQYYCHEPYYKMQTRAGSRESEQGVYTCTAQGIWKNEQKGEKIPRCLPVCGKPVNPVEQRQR
Description: Assay of C1 r Enzyme Activity Purified human C1 r was obtained commercially from Enzyme Research Labs (South Bend, Ind.). The enzyme is stored frozen at -70° C. at a stock concentration of about 1 mg/mL of protein until the enzyme is needed. […] The thioester substrate, z-Gly-Arg-S-Bzl, for C1 r assays (McRae, et al., 1981) is obtained commercially from Enzyme System Products (Livermore, Calif.). All other reagents were obtained from Sigma Chemical Co. (St. Louis, Mo.). The procedure for assaying the inhibition of C1 r enzyme activity is as follows. A 5 mM stock solution of z-Gly-Arg-S-Bzl is made in dimethylsulfoxide (DMSO) and stored at room temperature until needed. The stock substrate solution is diluted 3 parts stock substrate solution to 7 parts distilled water to make a 1.5 mM working substrate solution. The working substrate solution is made just before it is needed. A fresh solution of 20 μg/mL of C1 r enzyme is made in 10 mM Tris buffer, pH 7.4. The enzyme solution can be stored on ice for up to an hour. […] Compounds at concentrations ranging from 1 mM to 0.010 mM are dissolved in DMSO and a 10 μL aliquot of each concentration is deposited in a well of a 96-well microtiter plate. Fifty microliters of the working substrate solution and 50 μL of DTNB solution are then dispensed in the wells of the microtiter plate, followed by the immediate addition of 50 μL of the C1 r enzyme solution to start the assay. The assay produces a yellow color that is read in the kinetic mode using a Molecular Devices Thermomax microplate reader set to a wavelength of 405 nm. The assay background is followed by monitoring wells that contain substrate, buffer, and DTNB solutions but no enzyme. All assays are performed in triplicate at each inhibitor concentration tested. Values for each inhibitor concentration are reported as optical density (OD)/minute.

[1] = biological target: T2, human complement protease C1 r (Homo sapiens, UniProt P00736); experiment: Assay 2, inhibition of human complement protease C1r with substrate ZVGR-pNA; format: biochemical; settings: Table 2; substrate ZVGR-pNA 1.2 mM, pH 7.4, 25° C., 10 minutes preincubation; read-out: Inhibition of Clr ZVGRpNA - Assay 2
T2 sequence (P00736 464-705 limits assumed): T1 sequence (P00736 464-705 limits assumed)
T2 sequence (P00736 18-463 partner limits assumed): T1 sequence (P00736 18-463 partner limits assumed)
Description: The assay was performed in a 96-well format. Fifty microliters of water were added to each well followed by 2.5 μL of an inhibitory agent, usually in dimethyl foramide (DMF) (or water). A C1 r solution (100 μL) containing 0.1 μg of activated human C1 r and 100 mM Tris-HCl (pH 7.4 at 25° C.) was then added. The mixture was incubated for 10 minutes at 25° C. The reaction was then started by the addition of 100 μL of a 3 mM (Cbz-Val-Gly-Arg-p-nitroanilide) ZVGR-pNA solution. The final reaction mixture (250 μL) contained 40 mM of Tris-HCl, 1.2 mM of ZVGR-pNA, 0.1 μg C1 R and certain concentration of an inhibitor. The production of p-nitroaniline was monitored at 405 nm every 15 minutes up to 90 minutes (at 25° C.). The velocity was linear for at least 60 minutes.

[2] = Table 1 and text, pH 7.4-7.5, read-out: Inhibition of Clr Assay 1 (IC50)
[3] = Table 2, pH 7.4-7.5, read-out: Inhibition of Clr Assay 1 IC50

Compound: CN(C(=O)c1ccccc1I)c1nc2ccc(Cl)cc2c(=O)o1 [Example 41, N-(6-Chloro-4-oxo-4H-benzo[d][1,3]oxazin-2-yl)-2-iodo-N-methyl-benzamide]
IC50 (human C1 r; [2]): > 66 µM

Compound: CN(C(=O)c1ccccc1I)c1nc2cc(Cl)ccc2c(=O)o1 [Example 42, N-(7-Chloro-4-oxo-4H-benzo[d][1,3]oxazin-2-yl)-2-iodo-N-methyl-benzamide]
IC50 (human C1 r; [2]): 18 µM

Compound: COc1ccc2c(=O)oc(N(C)C(=O)c3ccccc3I)nc2c1 [Example 44, 2-Iodo-N-(7-methoxy-4-oxo-4H-benzo[d][1,3]oxazin-2-yl)-N-methyl-benzamide]
IC50 (human C1 r; [2]): > 66 µM

Compound: O=c1oc(Nc2ccccc2I)nc2cc(F)c(F)cc12 [Example 46, 6,7-Difluoro-2-(2-iodo-phenylamino)-benzo[d][1,3]oxazin-4-one]
IC50 (human C1 r; [2]): 7 µM

Compound: O=c1oc(Nc2c(Cl)cccc2Cl)nc2cc(Cl)ccc12 [Example 50, 7-Chloro-2-(2,6-dichloro-phenylamino)-benzo[d][1,3]oxazin-4-one]
IC50 (human C1 r; [2]): 0.4 µM

Compound: Cc1ccccc1Nc1nc2ccccc2c(=O)o1 [Example 51, 2-o-Tolylamino-benzo[d][1,3]oxazin-4-one]
IC50 (human C1 r; [2]): 31 µM

Compound: O=c1oc(Nc2ccccc2Cl)nc2cc([N+](=O)[O-])ccc12 [Example 52, 2-(2-Chloro-phenylamino)-7-nitro-benzo[d][1,3]oxazin-4-one]
IC50 (human C1 r; [2]): 1.4 µM

Compound: O=c1oc(Nc2c(Cl)cccc2Cl)nc2ccccc12 [Example 53, 2-(2,6-Dichloro-phenylamino)-benzo[d][1,3]oxazin-4-one]
IC50 (human C1 r; [2]): 1.5 µM

Compound: CN(C(=O)c1cccc2ccccc12)c1nc2ccccc2c(=O)o1 [Example 57, Naphthalene-1-carboxylic acid methyl-(4-oxo-4H-benzo[d][1,3]oxazin-2-yl)-amide]
IC50 (human C1 r; [2]): 23.4 µM

Compound: CN(C(=O)c1ccco1)c1nc2ccccc2c(=O)o1 [Example 61, Furan-2-carboxylic acid methyl-(4-oxo-4H-benzo[d][1,3]oxazin-2-yl)-amide]
IC50 (human C1 r; [2]): 10.1 µM

Compound: CCCCCCC(=O)N(C)c1nc2ccccc2c(=O)o1 [Example 64, Heptanoic acid methyl-(4-oxo-4H-benzo[d][1,3]oxazin-2-yl)-amide]
IC50 [1]: 0.0478 µM | IC50 (human C1 r; [3]): 0.68 µM

Compound: CN(C(=O)C1CCCCC1)c1nc2ccccc2c(=O)o1 [Example 65, Cyclohexanecarboxylic acid methyl-(4-oxo-4H-benzo[d][1,3]oxazin-2-yl)-amide]
IC50 [1]: 0.0078 µM | IC50 (human C1 r; [3]): 1.2 µM

Compound: CCCCCCC(=O)N(CC)c1nc2ccccc2c(=O)o1 [Example 66, Heptanoic acid ethyl-(4-oxo-4H-benzo[d][1,3]oxazin-2-yl)-amide]
IC50 [1]: 0.029 µM | IC50 (human C1 r; [3]): 6.32 µM

Compound: CCCCCCCCCCC(=O)N(C)c1nc2ccccc2c(=O)o1 [Example 67, Undecanoic acid methyl-(4-oxo-4H-benzo[d][1,3]oxazin-2-yl)-amide]
IC50 [1]: 0.5 µM | IC50 (human C1 r; [3]): > 62.5 µM

Compound: N=C(N)c1ccc2cc(OC(=O)c3ccc(N=C(N)N)cc3)ccc2c1 [FUT-175, reference compound]
IC50 (human C1 r; [2]): 12 µM

More lines, now with the values ahead:

IC50 (human C1 r; [2]): 48 µM
Compound: COc1ccc2nc(N(C)C(=O)c3ccccc3I)oc(=O)c2c1 [Example 43, 2-Iodo-N-(6-methoxy-4-oxo-4H-benzo[d][1,3]oxazin-2-yl)-N-methyl-benzamide]

IC50 (human C1 r; [2]): 1.4 µM
Compound: Cc1ccc2c(=O)oc(Nc3ccccc3Cl)nc2c1 [Example 45, 2-(2-Chloro-phenylamino)-7-methyl-benzo[d][1,3]oxazin-4-one]

IC50 (human C1 r; [2]): 2 µM
Compound: O=c1oc(Nc2ccccc2Cl)nc2cc(Cl)c(Cl)cc12 [Example 48, 6,7-Dichloro-2-(2-chloro-phenylamino)-benzo[d][1,3]oxazin-4-one]

IC50 (human C1 r; [2]): 36 µM
Compound: CN(C(=O)c1ccccc1I)c1nc2cccc(Cl)c2c(=O)o1 [Example 54, N-(5-Chloro-4-oxo-4H-benzo[d][1,3]oxazin-2-yl)-2-iodo-N-methyl-benzamide]

IC50 (human C1 r; [2]): 2.8 µM
Compound: Cc1ccc2c(=O)oc(N(C)C(=O)c3ccccc3I)nc2c1 [Example 55, 2-Iodo-N-methyl-N-(7-methyl-4-oxo-4H-benzo[d][1,3]oxazin-2-yl)-benzamide]

IC50 (human C1 r; [2]): 8 µM
Compound: CN(C(=O)c1ccccc1I)c1nc2cc(Cl)c(Cl)cc2c(=O)o1 [Example 56, N-(6,7-Dichloro-4-oxo-4H-benzo[d][1,3]oxazin-2-yl)-2-iodo-N-methyl-benzamide]

IC50 (human C1 r; [2]): 16 µM
Compound: CCCCc1ccc(C(=O)N(C)c2nc3ccccc3c(=O)o2)cc1 [Example 58, 4-Butyl-N-methyl-N-(4-oxo-4H-benzo[d][1,3]oxazin-2-yl)-benzamide]

IC50 (human C1 r; [2]): 19 µM
Compound: COc1ccc(C(=O)N(C)c2nc3ccccc3c(=O)o2)cc1 [Example 59, 4-Methoxy-N-methyl-N-(4-oxo-4H-benzo[d][1,3]oxazin-2-yl)-benzamide]

IC50 (human C1 r; [2]): 40 µM
Compound: CN(C(=O)c1cccnc1)c1nc2ccccc2c(=O)o1 [Example 62, N-Methyl-N-(4-oxo-4H-benzo[d][1,3]oxazin-2-yl)nicotinamide]

IC50 [1]: 0.103 µM | IC50 (human C1 r; [3]): 1.3 µM
Compound: CN(C(=O)CCc1ccccc1)c1nc2ccccc2c(=O)o1 [Example 68, N-Methyl-N-(4-oxo-4H-benzo[d][1,3]oxazin-2-yl)-3-phenyl-propionamide]

IC50 [1]: 0.399 µM | IC50 (human C1 r; [3]): 30 µM
Compound: CC(=O)N(C)c1nc2ccccc2c(=O)o1 [Example 69, N-Methyl-N-(4-oxo-4H-benzo[d][1,3]oxazin-2-yl)acetamide]
